Measurements: patent US20050004225A1, “Oxidoreductase inhibitors and methods of screening and using thereof” (priority 2003, published 2005)
Like-named read-outs stand apart in the source and are kept apart here. One block for each molecule: values may come before it.

What was measured:
human aldose reductase = molecular target: T1, human aldose reductase (Homo sapiens, UniProt P15121); experiment: Inhibition of recombinant human aldose reductase, DL-glyceraldehyde reduction, NADPH at 340 nm; assay type: biochemical
T1 construct: His-tag (cleaved yes); made in house; host or cells: E. coli BL21
Procedure: DL Glyceraldehyde, NADPH, and Bezafibrate (2-[4-[2-(4-chlorobenzamiso)ethyl]phenoxy]-2-methyl-propionic acid) were purchased from Sigma-Aldrich. All other chemicals used were of the highest purity available.
Human aldose reductase was recombinantly expressed in E. coli BL21, purified, and used for testing the efficacy of Bezafibrate in regulating aldehyde reduction reaction. […] Over night grown culture was inoculated (25 ml/l) into four 3 l flasks each containing 11 LB supplemented with ampicillin (50 μg/ml) at 37° C. with shaking (250 rpm) for 3 to 4 h until an attenuance (A600) of ˜0.7. Isopropyl β-D-thiogalactoside (IPTG, 1 mM) was added to the culture and was further incubated for 3 h to induce the expression of human aldose reductase gene. […] Cell pellets were resuspended in 80 ml of Talon extraction/wash buffer, (pH 7.9, Clonetech), and lysed by sonication with ten pulses (30 s each) and centrifuged at 12 000 g. […] The slurry was then transferred into a column allowing the matrix to pack and the supernatant to pass through at a flow rate of […]. The column was washed with 50 ml of Talon extraction/wash buffer, and the enzyme was eluted with 50 ml of Talon elution buffer. The eluted protein was dialyzed overnight using Spectra/Por 5-8 kDa MWCO at 4° C. in 50 mM sodium phosphate buffer (pH 7.0) containing 1 mM 2-mercaptoethanol. His-tag from the dialyzed protein was removed using thrombin cleavage kit (Novagen) by adding 1 μl of thrombin to 4 mg of protein and incubating overnight at room temperature. The purity of the protein at each stage of purification was assessed by SDS PAGE, and staining the gels with Coomassie Blue.
Activity with various concentrations of DL glyceraldehyde in the absence and, in the presence of various concentrations of Bezafibrate was determined by monitoring the change in NADPH concentration at room temperature 28±2° C. in a Beckman DU600 model spectrophotometer by measuring the absorbance at 340 nm, in 0.01 M sodium phosphate buffer (pH 6.2). Kinetic parameters were obtained from initial-rate activity measurements, with substrate concentrations of 0.05 mM to 10 mM. Each individual rate measurement was done in duplicate. At least three independent determinations were performed for each kinetic constant. Values were calculated using Sigmaplot Ver 8.0 (SPSS Inc.) using a non-linear Marquardt's regression algorithm that computes the coefficients (parameters) of the independent variable(s) that give the “best fit” between the equation and the data. Inhibition-constant (Ki) and, the IC50 values for bezofibrate was calculated from the secondary plot of slope values from the double-reciprocal plot versus inhibitor concentration and from the plot of rate of reaction versus inhibitor concentration respectively.
The initial rates in the presence of Bezafibrate were analyzed by using equation 1: v=Vmax/((1+Km/S)*(1+I/Ki)/(1+I*beta/Ki)) (1) where, v=rate of reaction, Vmax=maximum initial velocity for the uninhibited reaction, Km=Michaelis constant in the absence of inhibitor, Ki=inhibition constant and beta=the rate constant when enzyme substrate complex breaks down to Enzyme and Product.

rat aldose reductase = rat aldose reductase (Rattus norvegicus, UniProt P07943); conditions: cited from earlier work
[1] = system: HeLa cervical carcinoma cells; conditions: cited from earlier work
[2] = system: B16 melanoma-induced cachexia; conditions: cited from earlier work; for B16 melanoma-induced cachexia: mice
hepatoma cells = conditions: in the presence of 3-deoxyglucosone and glyceraldehydes; cited from earlier work
[3] = system: isolated rabbit cardiac myocytes; experiment: Cellular metabolism of adenine propenal in isolated cardiac myocytes (HPLC, ESI+/MS); assay type: cell-based; conditions: 10 μM adenine propenal
Procedure: (§1) The cellular metabolism of base propenals was examined in isolated rabbit cardiac myocytes and COS-7 cells. The myocytes from rabbit ventricle were isolated as described in (46) and the COS-7 cells were obtained from ATCC. For metabolic studies, the cells were incubated with 10 μM of adenine propenal in Hepes-Ringer's buffer, pH 7.4. After 30 min of incubation, the medium was removed, and the adenine propenal and metabolites in the medium were separated by HPLC. […] To establish the structure of the glutathione conjugate peak I of the metabolites was injected into ESI^+/MS.
(§2) To probe the role of AR further, whether upregulation of AR would enhance the reductive metabolism of adenine propenal was examined. To enhance the expression of AR, the COS-7 cells were transfected with AR cDNA using lipofectamine.

COS-7 cells [4] = experiment: Cellular metabolism of adenine propenal in COS-7 cells (HPLC, ESI+/MS); assay type: cell-based; conditions: 10 μM adenine propenal; for reduction of the glutathione conjugate of adenine propenal in the presence of AR inhibitor: COS-7 cells
Procedure: as §1, §2
To examine changes in metabolism, the cells transfected with AR cDNA and the empty vector were incubated with 10 μM adenine propenal as described before. After 30 min of incubation, the medium was collected and separated by HPLC.

COS-7 cells [5] = experiment: Toxicity of adenine propenal to COS-7 cells, MTT assay; assay type: cell-based; conditions: 100 μM adenine propenal, pre-incubated with 100 μM sorbinil
[6] = molecular target: T2, rat lens aldose reductase (Rattus norvegicus, UniProt P07943); conditions: cited from earlier work
T2 construct: host or cells: rat lens (as named)

[7] = system: murine adenocarcinoma colon26-induced cachexia; conditions: cited from earlier work
human monocytes = human monocytes stimulated by LPS in vitro; cited from earlier work
interleukin-1 (IL-1) = conditions: mice; cited from earlier work
[8] = reduction of glyceraldehyde, read-out: Ki value
[9] = saturating substrate (10 mM DL-glyceraldehyde), read-out: IC50 value
[10] = Table I, recombinant human AR, reduction of DL-glyceraldehyde, read-out: K1

inhibitory effect on AR activity (in words) (human aldose reductase): inhibitory effect | Ki (human aldose reductase; [8]): 1.04 ± 0.047 µM | IC50 (human aldose reductase; [9]): 1.2 ± 0.1 µM
Compound: CC(C)(Oc1ccc(Cl)cc1)C(=O)O [2-4-Chlorophenoxy clofibric acid]

Ki (human aldose reductase; apparent noncompetitive inhibition constant, read-out: Ki value, unit inferred): 2 µM | IC50 (human aldose reductase; [9]): 3.8 µM
Compound: CC(C)(Oc1ccc(CCNC(=O)c2ccc(Cl)cc2)cc1)C(=O)O [Bezafibrate, 2-[4-[2-(4-chlorobenzamiso)ethyl]phenoxy]-2-methyl-propionic acid]

Compound: COc1cccc2c1C(=O)c1c(O)c3c(c(O)c1C2=O)C[C@@](O)(C(C)=O)C[C@@H]3O[C@H]1C[C@H](N)[C@H](O)[C@H](C)O1 [Daunorubicin]
inhibitory effect on AR activity (in words) (human aldose reductase): inhibitory effects | Ki (human aldose reductase; [10]): 21.4 ± 7.67 µM | IC50 (human aldose reductase; [9]): 5 µM

Compound: COc1cccc2c1C(=O)c1c(O)c3c(c(O)c1C2=O)C[C@@](O)(C(=O)CO)C[C@@H]3O[C@H]1C[C@H](N)[C@H](O)[C@H](C)O1 [Doxorubicin]
IC50 (human aldose reductase): 0.2 µM | Ki (human aldose reductase): 0.24 ± 0.02 µM

Compound: CCOC(=O)C1=C(O)C(=O)N(Cc2ccccc2)C1 [EBPC, ethyl 1-benzyl-3-hydroxy-2(5H)-oxopyrrole-4-carboxylate]
inhibition of rat aldose reductase (rat aldose reductase): inhibits | cell death or proliferation, EBPC alone ([1]; 30 or 50 μM EBPC alone): no effect | percentage of dead cells ([1]; 24 h, doxorubicin or 30 μM cisplatin with 30 or 50 μM EBPC, vs untreated control): significant increase | extracellular signal-regulated kinase (ERK) activity ([1]; EBPC with chemotherapeutic drugs vs chemotherapeutic drugs): increased | cytotoxic effects of doxorubicin and cisplatin ([1]; HeLa cells, combination with EBPC): enhances

Compound: COc1cccc2c1C(=O)c1c(O)c3c(c(O)c1C2=O)C[C@@](O)(C(=O)CO)C[C@@H]3O[C@H]1C[C@H](N)[C@@H](O)[C@H](C)O1 [Epirubicin]
IC50 (human aldose reductase): 5.5 µM | Ki (human aldose reductase): 77.6 µM

inhibitory effect on AR activity (in words) (human aldose reductase): inhibitory effect | IC50 (human aldose reductase; Table I, recombinant human AR, reduction of DL-glyceraldehyde, read-out: IC50): 6.5 ± 0.02 µM | Ki (human aldose reductase; [10]): 3.5 ± 0.79 µM | Ki (human aldose reductase; [8]): 2.74 ± 0.072 µM | IC50 (human aldose reductase; [9]): 3 ± 0.2 µM
Compound: Cc1ccc(C)c(OCCCC(C)(C)C(=O)O)c1 [Gemfibrozil]

inhibitory effect on AR activity (in words) (human aldose reductase): inhibitory effects | Ki (human aldose reductase; [10]): 20.5 ± 1.5 µM | IC50 (human aldose reductase; [9]): 5.6 µM
Compound: CC(=O)[C@]1(O)Cc2c(O)c3c(c(O)c2[C@@H](O[C@H]2C[C@H](N)[C@H](O)[C@H](C)O2)C1)C(=O)c1ccccc1C3=O [Idamycin]

Compound: O=[N+]([O-])NC1=NCCN1Cc1ccc(Cl)nc1 [Imidcloprid, N-(6-chloropyridin-3-ylmethyl)-2-nitroiminoimidazolidine]
IC50 (human aldose reductase; IC50 value, saturating substrate (10 mM DL-glyceraldehyde)): 1.5 µM | Ki (human aldose reductase; Ki value, reduction of glyceraldehyde): 12.6 µM

Compound: CCOP(=O)(Cc1ccc(C(=O)Nc2ccc(Br)cc2C#N)cc1)OCC [NO-1886]
weight of epididymal fat and whole body lipid ([2]; mice after intraperitoneal inoculation of B16): ameliorated | B16 melanoma-induced cachexia [2]: alleviated

Compound: CC(/C=C1\SC(=S)N(CC(=O)O)C1=O)=C\c1ccccc1 [ONO-2235]
viability of hepatoma cells (hepatoma cells): decreased

inhibitory effect on AR activity (in words) (human aldose reductase): inhibitory effects
Compound: O=C1NC(=O)[C@@]2(CCOc3ccc(F)cc32)N1 [Sorbinil]
reduction of the glutathione conjugate of adenine propenal in the presence of AR inhibitor [3]: significantly prevented | adenine propenol peak (22 min) in AR cDNA-transfected cells (COS-7 cells [4]; AR-transfected COS-7 cells, 30 min, in the presence of sorbinil): completely abolished | reduction of the glutathione conjugate of adenine propenal in the presence of AR inhibitor (COS-7 cells [4]): significantly prevented | half life of cell viability after pre-incubation with AR inhibitor (COS-7 cells [5]): 6.1 ± 0.5 h

Compound: N#CC(=C(/N)Sc1ccccc1N)/C(C#N)=C(\N)Sc1ccccc1N [U0126]
EBPC-mediated enhancement of cell death ([1]; inhibition of ERK activation by MEK inhibitor): reversed

inhibitory effect on AR activity (in words) (human aldose reductase): inhibitory effects
Compound: O=C(O)Cc1nn(Cc2nc3cc(C(F)(F)F)ccc3s2)c(=O)c2ccccc12 [Zopolrestat]

Compound: OC/C=C/c1ccccc1 [ainnnamyl alcohol]
inhibition against rat AR [6]: weak inhibition

Compound: O=CC=Cc1ccccc1 [cinnamaldehyde]
inhibition against rat AR [6]: high potency

Compound: C=CCc1ccc(O)c(OC)c1 [eugenol]
inhibition against rat AR [6]: weak inhibition

Compound: O=C(O)Cc1nn(Cc2ccc(Br)cc2F)c(=O)c2ccccc12 [ponalrestat]
B16 melanoma-induced cachexia [2]: inhibited | survival ([7]; colon26 bearing mice): significantly prolonged | weight of body mass, epididymal fat, gastrocnemius muscle and carcass ([7]; colon26 bearing mice): attenuated the reduction | tumor growth ([7]; mice bearing colon26 subcutaneously): slightly stimulated | production of interleukin-1 (IL-1) (human monocytes): inhibited | LPS-induced increase of IL-1 in the blood (interleukin-1 (IL-1)): suppressed

Compound: COc1ccc2c(C(=S)N(C)CC(=O)O)cccc2c1C(F)(F)F [tolrestat]
reduction of the glutathione conjugate of adenine propenal in the presence of AR inhibitor [3]: significantly prevented | reduction of the glutathione conjugate of adenine propenal in the presence of AR inhibitor (COS-7 cells [4]): significantly prevented

Compound: O=C(O)/C=C/c1ccccc1 [trans-cinnamic acid]
inhibition against rat AR [6]: weak inhibition

Compound: N#CC(=Cc1ccc(O)cc1)C(=O)O [α-cyano-4-hydroxycinnamic acid]
IC50 (human aldose reductase): 0.08 ± 0.005 µM | Ki (human aldose reductase): 0.085 µM | inhibition pattern with respect to reduction of glyceraldehyde, forward direction (human aldose reductase; recombinant hAR, Lineweaver-Burk plot): partial noncompetitive inhibition pattern
